The Km is the concentration of substrate that gives half-maximal velocity.

In the assay the test system is T1, C11-GH1.
T1 construct: gene C11_GH1; Full ORF in pET28 (NdeI/XhoI), E. coli BL21(DE3), Ni-NTA; text says C-terminal His tag but reverse primer carries a stop codon; Primer-derived: N-term (M)VAFSDKFL (native GTG start), C-term SRNGKNL, nucleophile region LPLIITENGMADND
Kind of assay: fluorogenic hydrolysis, MU release. The assay is classed as biochemical. The conditions noted are these: 20 mM HEPES, 300 mM NaCl, pH 7.0, 37°C; read-out: Mean Km (mM) ± SD. The text has this:
fluorogenic hydrolysis, MU release on C11-GH1
In the case of `Cc1cc(=O)oc2cc(O[C@@H]3O[C@H](CN=[N+]=[N-])[C@@H](O)[C@H](O)[C@H]3O)ccc12` [6-N3-Glc MU], the Km was determined as 0.05 ± 0.01 mM. As to `Cc1cc(=O)oc2cc(O[C@@H]3O[C@H](CO)[C@@H](O)[C@H](O)[C@H]3O)ccc12` [Glc MU], the Km was found to be 0.2 ± 0.03 mM. As to `Cc1cc(=O)oc2cc(O[C@@H]3O[C@H](CN=[N+]=[N-])[C@H](O)[C@H](O)[C@H]3O)ccc12` [6-N3-Gal MU, 4-methylumbelliferyl 6-azido-6-deoxy-β-D-galactoside], the Km turned out to be 0.1 ± 0.02 mM.

As to `Cc1cc(=O)oc2cc(O[C@@H]3O[C@H](CO)[C@H](O)[C@H](O)[C@H]3O)ccc12` [Gal MU], the Km turned out to be 0.05 ± 0.02 mM.
